pIC50: −log10 of the molar value. Where a SMILES comes first, the peptide text is derived from it. Primed or numbered codes have the meaning given here. Where no end group is shown, it is not given here. Side-chain parts run from the residue outwards. [ ]: non-standard residue; d: D form. The star is where a group is joined. DOTA = O=C(O)CN1CCN(CC(=O)O)CCN(CC(=O)*)CCN(CC(=O)O)CC1; Glu″ = glutamate linker (Glu-Pal); Palmitoyl = CCCCCCCCCCCCCCCC(=O)*

In data set [1] the test system is CXCR4-tropic X4-HIV-1 (NL4-3). It is filed as cell-based. The conditions noted are these: for pIC50: CXCR4-tropic X4- (NL4-3).
Experimental: The activity of the peptides was estimated by different assays.
The X4-HIV inhibition assay is designed to measure the activity of the inventive peptides by their efficiency of blocking the infection of tissue culture cells by CXCR4-tropic HIV-1 variants.
HIV-1 inhibition assay. […] For infection of TZM-bl cells in presence of inhibitors, cells were seeded at a density of 1×10^5 cells/ml in 70 μl DMEM containing 2.5% FCS. Compounds were diluted in PBS and 10 μl were added. After 15 minutes of incubation cells were inoculated with 20 μl of diluted virus. Infection rates were determined three days later using Gal-Screen system (Applied Biosystems).
A further data set deals with T1, CXCR4 (Homo sapiens, UniProt P61073).
T1 construct: endogenous in cells; host or cells: SupT1 cells
Nature of the data set: Antibody competition assay (12G5-assay) on SupT1 cells. Type of data set: binding. As to the method: Second, the activity was tested by an antibody competition assay (FIG. 2). Values determined by the competition assay represent the potency of a compound to compete with an antibody that specifically binds to the binding pocket (ECL2) of CXCR4. […] To the right of the diagrams, an assignment of the curves to the tested peptides is explained. […] Three independent experiments were carried out for each peptide in each assay. The error bars refer to the standard deviation.
Antibody competition assay. Competition of compounds with antibody binding was performed on SupT1 cells. For that cells were washed in PBS containing 1% FCS and 50,000 cells were then seeded per well in a 96 V-well plate. Buffer was removed and plates were precooled at 4° C. Compounds were diluted in PBS and antibody (clone 12G5, APC labelled) was diluted in PBS containing 1% FCS. The antibody was used at a concentration closed to its determined Kd. 15 μl compounds were then added to the cells and 15 μl antibody immediately afterwards. Plates were incubated at 4° C. in the dark for 2 hours. Afterwards cells were washed twice with PBS containing 1% FCS and fixed with 2% PFA. Antibody binding was analyzed by flow cytometry (FACS CytoFLEX; Beckman Coulter®).

Data set [2] can be described thus: Functional stability assay in human plasma. As for the experimental part:
Fourth, the stability of peptides in human plasma and whole human blood was tested (FIG. 4). The functional stability of EPI-X4 (SEQ ID NO.: 1) derivatives was screened using a CXCR4 antibody-based screening approach. Peptides were diluted in full human plasma or blood (>99%) and the functional activity was then measured after either 2 hours or 8 hours and compared to a sample that was not incubated in plasma or blood.
In this test, the peptides were incubated in human plasma for a certain time period.
Stability assay. Whole blood was collected from healthy donors in EDTA tubes and directly used or subsequently centrifuged for 15 min at 2,500×g to obtain plasma. Plasma from 6 donors was pooled and stored in aliquots at −80° C. Compounds were 200-fold diluted in human plasma or whole human blood to reach final concentrations of 20 μM. The t=0 sample was immediately taken and stored at −80° C. Plasma/compound or blood/compound mixture was then transferred to 37° C. and shook at 350 rpm. At given time points samples were taken and stored at −80° C.°. For measuring the functional activity of the plasma/peptide samples, the mixtures were thawed and diluted in ice cold PBS. 12G5-APC antibody competition was then performed as described before. For blood/peptide functional stability, samples were thawed and centrifuged at 14,000 rpm to remove cells and debris. The supernatant was then diluted in PBS and 12G5-antibody competition assay was performed. After the 2 hours incubation, the cells were washed and 50 μl of 1-step-Fix/Lyse solution (Thermo Fisher #00-5333-54) was added for 15 minutes at room temperature. Afterwards cells were washed again and analyzed for bound antibody.

Data set [3] has as its system CXCL12-induced AKT signaling. The experiment in a line: ERK/AKT signaling assay in SupT1 cells: AKT phosphorylation. It is filed as cell-based. The conditions noted are these: 10 μM. As for the experimental part:
Third, the activity of the claimed EPI-X4 derivatives was tested by the effect on CXCL12/CXCR4-mediated ERK (Extracellular-signal Regulated Kinases) and AKT (a serine/threonine-protein kinase) signaling (FIG. 3). In that assay CXCR4 expressing cells are stimulated with the CXCR4 chemokine-ligand CXCL12, which subsequently leads to phosphorylation of ERK and AKT. Preincubation of cells with CXCR4-antagonists blocks those pathways. […] Two or three independent experiments were carried out in triplicates for each peptide in each assay. The error bars refer to the standard deviation.
ERK/AKT signaling assay. CXCL12 induced ERK and AKT phosphorylation was determined in SupT1 cells. For this, 100,000 cells were seeded per well in a 96-V well plate in 100 μl medium supplemented with 1% FCS. Cells were incubated for 2 hours at 37° C. before 5 μl of compounds were added. After 15 min incubation at 37° C. cells were stimulated by adding 5 μl CXCL12 diluted in PBS to reach a final concentration of 100 ng/ml. Cells were further incubated for 2 min before the reaction was stopped by adding 20 μl of 10% PFA. Cells were fixed for 15 min at 4° C. before PFA was removed and cells permeabilized by adding 100 μl ice cold methanol. After 15 min at 4° C. the methanol was removed, cells were washed and 30 μl primary antibody was added (phospho-p44/42 MAPK (Erk1) (Tyr204)/(Erk2) (Tyr187) (D1H6G) mouse mAb #5726; phosphor-Akt (Ser473) (193H12) rabbit mAb #4058 Cell Signaling) for 1 hour at 4° C. After the antibody was removed and cells were washed secondary antibody was added for 30 min. Cells were washed afterwards and subsequently analyzed by flow cytometry.

T1 sequence (P61073 whole entry): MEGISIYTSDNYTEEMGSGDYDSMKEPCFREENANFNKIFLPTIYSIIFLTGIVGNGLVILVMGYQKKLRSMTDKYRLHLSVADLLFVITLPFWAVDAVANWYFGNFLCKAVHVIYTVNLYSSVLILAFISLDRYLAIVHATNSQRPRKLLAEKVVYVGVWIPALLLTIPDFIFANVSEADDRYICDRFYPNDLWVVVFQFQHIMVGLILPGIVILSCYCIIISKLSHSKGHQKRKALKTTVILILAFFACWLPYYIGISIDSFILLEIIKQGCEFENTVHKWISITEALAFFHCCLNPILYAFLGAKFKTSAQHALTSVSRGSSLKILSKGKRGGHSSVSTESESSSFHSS

Regarding “JM #206: JM #21 with DOTA conjugated via an additional lysine coupled to the C-terminal amino acid of the peptide (ILRWSRKLPCVSK(DOTA))”, the “anti-HIV-1 activity (in words)” value in data set [1] is recorded as “suppressed HIV-1 infection with similar potency as the non-conjugated peptide”. In addition, the “antibody competition / binding to CXCR4 (in words)” value (from here on “antibody competition / binding”) with CXCR4 is “displaced the antibody as efficiently as the non-conjugated JM #21”.
As for “SC029: PEG 20 kDa telechelic peptide conjugate, JM #21 copies coupled to different ends of the polymer (ILRWSRKLPCVS; also: PEG 20 kDa conjugate, peptide copies at both polymer ends, site not given here)”, the “remaining (relative) activity after 8 hours of plasma incubation” value in data set [2] (human, plasma, 8 h) stood at 38%. For the same compound, in data set [1], the “anti-HIV-1 activity (in words)” value is “comparable to the state of the art CXCR4-antagonist AMD3100 and JM #21”.
Consider “SC042: PVA-coupled peptide JM #21, average molecular mass 20 kDa (ILRWSRKLPCVS; also: PVA-coupled, average 20 kDa)”, for which the “anti-HIV-1 activity (in words)” value in data set [1] is on record as “comparable activity as JM #21”. In the data set with CXCR4, the “antibody competition / binding” value is listed as “comparable activity as JM #21”.
Consider “JM #207: JM #122 with DOTA conjugated via an additional lysine coupled to the C-terminal amino acid of the peptide (ILRWSRKLPSVSK(DOTA))”, for which the “anti-HIV-1 activity (in words)” value in data set [1] is recorded as “suppressed HIV-1 infection with similar potency as the non-conjugated peptide”. Besides, in the data set with CXCR4, the “antibody competition / binding” value was “displaced the antibody as efficiently as the non-conjugated JM #21”.
As a reminder, the half-life is how long it takes for the measured level to halve. Read a high half-life as slow decline. In the case of `CC(C)C[C@H](NC(=O)[C@@H](NC(=O)[C@@H]1CCCN1C(=O)[C@@H](NC(=O)[C@H](CO)NC(=O)[C@@H](NC(=O)[C@H](CCC(N)=O)NC(=O)[C@@H]1CCCN1C(=O)[C@@H](NC(=O)[C@H](CCCCN)NC(=O)[C@H](CCCCN)NC(=O)[C@@H](NC(=O)[C@H](Cc1ccc(O)cc1)NC(=O)[C@H](CCCNC(=N)N)NC(=O)[C@@H](NC(=O)[C@@H](N)CC(C)C)C(C)C)[C@@H](C)O)C(C)C)C(C)C)[C@@H](C)O)[C@@H](C)O)C(=O)O` [EPI-X4] (H-LVRYTKKVPQVSTPTL-OH; N-terminus and C-terminus assumed), the half-life at 20 μM in data set [2] (human, plasma) came to 17 min. The “reduction of CXCL12-induced AKT signaling” value in data set [3] is listed as “about 40%”.
With “SC024: PEG-coupled peptide JM #21, average molecular mass 20 kDa (ILRWSRKLPCVS; also: coupled to PEG 20 kDa, site not given here)”, the “remaining (relative) activity after 8 hours of plasma incubation” value in data set [2] (human, plasma, 8 h) came out at 30%. In data set [1], the “anti-HIV-1 activity (in words)” value was “comparable to the state of the art CXCR4-antagonist AMD3100 and JM #21”.
As usually defined, the pIC50 is −log10 of the IC50, conventionally taken in molar units. As for `CC[C@H](C)[C@H](N)C(=O)N[C@@H](CCSC)C(=O)N[C@@H](CCCNC(=N)N)C(=O)N[C@@H](Cc1c[nH]c2ccccc12)C(=O)N[C@@H](CO)C(=O)N[C@@H](CCCNC(=N)N)C(=O)N[C@@H](CCCCN)C(=O)N[C@@H](CCSC)C(=O)N1CCC[C@H]1C(=O)N[C@@H](CS)C(=O)N[C@H](C(=O)N[C@@H](CO)C(=O)O)C(C)C` [JM #17] (H-IMRWSRKMPCVS-OH; C-terminus assumed), the pIC50 in data set [1] was > 8.30.
“SC033: PEG-coupled peptide JM #21, average molecular mass 5 kDa (ILRWSRKLPCVS; also: PEG-coupled, average 5 kDa, attachment site not given here)”: in data set [2] (human, plasma, 8 h), the “remaining (relative) activity after 8 hours of plasma incubation” value was 72%. Moreover, in data set [1], the “anti-HIV-1 activity (in words)” value was “comparable to the state of the art CXCR4-antagonist AMD3100 and JM #21”.
With `CC[C@H](C)[C@H](N)C(=O)N[C@@H](CC(C)C)C(=O)N[C@@H](CCCNC(=N)N)C(=O)N[C@@H](Cc1c[nH]c2ccccc12)C(=O)N[C@@H](CO)C(=O)N[C@@H](CCCNC(=N)N)C(=O)N[C@@H](CCCCN)C(=O)N[C@@H](CCSC)C(=O)N1CCC[C@H]1C(=O)N[C@@H](CS)C(=O)N[C@@H](CCSC)C(=O)N[C@@H](CO)C(=O)O` [JM #20] (H-ILRWSRKMPCMS-OH; C-terminus assumed), the pIC50 in data set [1] is > 8.30.
As to `CC[C@@H](C)[C@@H](N)C(=O)N[C@@H](CC(C)C)C(=O)N[C@@H](CCCNC(=N)N)C(=O)N[C@@H](Cc1c[nH]c2ccccc12)C(=O)N[C@@H](CO)C(=O)N[C@@H](CCCNC(=N)N)C(=O)N[C@@H](CCCCN)C(=O)N[C@@H](CC(C)C)C(=O)N1CCC[C@H]1C(N)=O` [JM #174] (H-[dI]LRWSRKLP-NH2), the “remaining (relative) activity after 8 hours of plasma incubation” value in data set [2] (human plasma, 8 hours) is recorded as 100%.
For the compound `c1cc(CN2CCCNCCNCCCNCC2)ccc1CN1CCCNCCNCCCNCC1` [AMD3100, reference compound], the “reduction of CXCL12-induced AKT signaling” value in data set [3] is “about 60%”.
Consider `CSCC[C@@H](N)C(=O)N[C@@H](CC(C)C)C(=O)N[C@@H](CCCNC(=N)N)C(=O)N[C@@H](Cc1c[nH]c2ccccc12)C(=O)N[C@@H](CO)C(=O)N[C@@H](CCCNC(=N)N)C(=O)N[C@@H](CCCCN)C(=O)N[C@@H](CCSC)C(=O)N1CCC[C@H]1C(=O)N[C@@H](CS)C(=O)N[C@H](C(=O)N[C@@H](CO)C(=O)O)C(C)C` [JM #28] (H-[dM]LRWSRKMPCVS-OH; C-terminus assumed), for which the “remaining (relative) activity after 2 hours of plasma incubation” value in data set [2] (human plasma) is reported as 96%. For the same compound, the “remaining (relative) activity after 8 hours of plasma incubation” value in data set [2] (human plasma, 8 hours) was determined as 77%. The compound also gave a pIC50 in data set [1] of 6.61.
Consider “d-MLRWSRK(Glu-Pal)-NH2 ([dM]LRWSRK([Glu″-Palmitoyl])-NH2) [JM #196]”, for which the “anti-HIV-1 activity (in words)” value in data set [1] is “strongly increased anti-HIV-1 activity”.
With `CC[C@H](C)[C@H](N)C(=O)N[C@@H](CC(C)C)C(=O)N[C@@H](CCCNC(=N)N)C(=O)N[C@@H](Cc1c[nH]c2ccccc12)C(=O)N[C@@H](CO)C(=O)N[C@@H](CCCNC(=N)N)C(=O)N[C@@H](CCCCN)C(=O)N[C@@H](Cc1ccccc1)C(=O)N1CCC[C@H]1C(=O)N[C@@H](CS)C(=O)N[C@H](C(=O)N[C@@H](CO)C(=O)O)C(C)C` [JM #22] (H-ILRWSRKFPCVS-OH; C-terminus assumed), the pIC50 in data set [1] was > 8.30.
`CCCCCCCCCCCCCCCC(=O)NCCCC[C@H](NC(=O)[C@H](CCCCN)NC(=O)[C@H](CO)NC(=O)[C@H](Cc1c[nH]c2ccccc12)NC(=O)[C@H](CCCNC(=N)N)NC(=O)[C@@H](NC(=O)[C@@H](N)[C@@H](C)CC)C(C)C)C(=O)N[C@H](C(=O)N1CCC[C@H]1C(N)=O)C(C)C` [JM #167, IVRWSKK(Pal)VP-NH2] (H-IVRWSKK(Palmitoyl)VP-NH2): the negative logarithm of the IC50 (pIC50) on CXCR4 was 8.70.
Turning to `CSCC[C@H](NC(=O)[C@H](N)CC(C)C)C(=O)N[C@@H](CCCNC(=N)N)C(=O)N[C@@H](Cc1c[nH]c2ccccc12)C(=O)N[C@@H](CO)C(=O)N[C@@H](CCCNC(=N)N)C(=O)N[C@@H](CCCCN)C(=O)N[C@@H](CCSC)C(=O)N1CCC[C@H]1C(=O)N[C@@H](CS)C(=O)N[C@H](C(=O)N[C@@H](CO)C(=O)O)C(C)C` [JM #36] (H-[dL]MRWSRKMPCVS-OH; C-terminus assumed), in data set [2] (human plasma), the “remaining (relative) activity after 2 hours of plasma incubation” value is listed as 85%. Further, in data set [2] (human plasma, 8 hours), the “remaining (relative) activity after 8 hours of plasma incubation” value is given as 81%.

These data come from US20230131339A1, “EPI-X4 BASED PEPTIDES AND DERIVATIVES THEREOF” (Universitaet Ulm, priority 2020, published 2023).
